Experimental findings from US12226395B2, “Composition for preventing or treating neurodegenerative diseases, containing diterpene-based compound” (KOREA RESEARCH INSTITUTE OF BIOSCIENCE AND BIOTECHNOLOGY, priority 2017, dated 2025) are described below.

A word on the IC50: it is the point on the concentration scale where inhibition reaches its midpoint.

Read-outs that look alike come from different tables or passages of the source.

Common to all, as to assay type: cell-based
Test [1] deals with T1, Nurr1 (Homo sapiens, UniProt P43354).
T1 construct: 3 types of plasmid DNA, including DNA containing Nurr1-LBD and DNA with β-galactosidase, were transfected into BE(2)C cells; expressed in transfected cells; host or cells: BE(2)C cells
In words: Nurr1 activity, luciferase reporter analysis in transfected BE(2)C cells. (In general: In a reporter assay the amount or activity of a reporter protein is the signal.)

Test [2] deals with T1, Nurr1. Described as above. The note with it: no concentration stated. The source says: As in Example 2, Nurr1 activity according to the concentration of the diterpene isolated from the extract of Daphne genkwa was confirmed through luciferase analysis.
Specifically, after synthesizing a vector in which the gene having the nucleotide sequence (5′-CTCGGAGGACAGTACTCCG-3 SEQ ID NO:1) to which the GLA4 gene can bind is repeated 8 times to the reporter gene, luciferase, is synthesized, 3 types of plasmid DNA, including DNA containing Nurr1-LBD and DNA with β-galactosidase, were transfected into BE(2)C cells. After 6 hours, the compounds 1 to 10 separated in Example 2 were treated according to the concentrations in Table 1 below. The cells thus treated were cultured in a 5% carbon dioxide incubator at 37° C. for 20 hours, and then luciferase analysis was performed. As a control, 0.1% DMSO was used, and at this time, the activity was increased by multiple, and Amodiaquine was used as a positive control.

Test [3] has as its system nitric oxide production in microglia BV-2 cells. In words: Inhibition of nitric oxide production in LPS-treated microglia BV-2 cells (Griess reagent). Conditions: for IC50: read-out: IC50, inhibition of nitric oxide production (Table 5). The source says:
The death of cranial nerve cells due to an inflammatory reaction in a microglia cell has been reported as one of the main causes of degenerative brain diseases such as dementia and Parkinson's disease. (Sarkar S et al., Neurotoxicology, 44, 250-262 (2014); Bower J H et al., Neurology, 67, 494-496 (2006)). Accordingly, the inhibition activity on nitric oxide production, a representative inflammatory factor, was investigated for the compounds isolated from Example 2 in a microglia. Specifically, microglia BV-2 cells were put into a 96-well plate at 5×10^4 cells/well, and cultured for 2 days, followed by incubation with LPS ([…]) for 24 hours with the compound isolated in Example 2 above. The culture supernatant was measured for absorbance at 540 nm using the Griess reagent to quantify nitrite to investigate the amount of nitric oxide production. Minocyline was used as a positive control.

T1 sequence (P43354 360-595 limits assumed): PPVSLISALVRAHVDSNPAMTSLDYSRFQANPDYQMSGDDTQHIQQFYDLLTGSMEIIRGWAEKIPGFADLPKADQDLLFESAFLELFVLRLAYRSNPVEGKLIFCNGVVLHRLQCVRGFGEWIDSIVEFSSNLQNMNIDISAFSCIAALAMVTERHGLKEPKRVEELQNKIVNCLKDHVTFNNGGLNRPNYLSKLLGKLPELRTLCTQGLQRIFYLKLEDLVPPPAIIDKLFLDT

In the case of `CCC/C=C/C=C/C=C/C(=O)O[C@@H]1[C@@H](C)[C@@]2(O)C(C=C(CO)C[C@]3(O)C(=O)C(C)=CC23)C2C(C)(C)[C@@]21OC(C)=O` (stereo partly drawn) [compound 16, (4aR,7bS,8R,9R,9aS)-9a-acetoxy-4a,7b-dihydroxy-3-(hydroxymethyl)-1,1,6,8-tetramethyl-5-oxo-1a,1b,4,4a,5,7a,7b,8,9,9a-decahydro-1H-cyclopropa[3,4]benzo[1,2-e]azulen-9-yl (2E,4E,6E)-deca-2,4,6-trienoate], the “Nurr1 activation (in words)” value is given as “significantly activates Nurr1” at Nurr1 [1] (0.03 μM) and “better effect of increasing Nurr1 activity” at Nurr1 [2]. For the same molecule, the “Nurr1 activity (Table 3), relative to control treatment” value at Nurr1 [1] (0.03 μM) was “*1.42 ± 0.15”; on Nurr1 [1] (0.1 μM), “*1.68 ± 0.43”; at Nurr1 [1] (0.3 μM) it was “*1.82 ± 0.51”; on Nurr1 [1] (1 μM), “**1.53 ± 0.07”. For the same molecule, the IC50 in test [3] (Mus musculus, BV-2, 24 h) worked out at 1.78 µM.
Regarding yuanhuatine [compound 14], the figures for the “Nurr1 activation (in words)” value at Nurr1 [1] (0.003 μM), at Nurr1 [1] (0.03 μM) and at Nurr1 [2] were “activated Nurr1”, “significantly activates Nurr1” and “better effect of increasing Nurr1 activity”, respectively. The “Nurr1 activity (Table 3), relative to control treatment” value is reported as 1.03 ± 0.15 at Nurr1 [1] (0.003 μM); 0.94 ± 0.04 on Nurr1 [1] (0.01 μM); “*1.63 ± 0.18” at Nurr1 [1] (0.03 μM); “**1.68 ± 0.11” at Nurr1 [1] (0.1 μM); “**1.62 ± 0.11” on Nurr1 [1] (0.3 μM); “*1.67 ± 0.32” on Nurr1 [1] (1 μM). Moreover, in test [3] (BV-2 cells, LPS 24 hours, nitrite by Griess reagent), the half-maximal inhibitory concentration (IC50) was found to be 1.03 µM. In test [3] (microglia BV-2 cells), the “Inhibition of nitric oxide production (in words)” value is “better inhibition activity on nitric oxide production”.
